Assay results from patent US20070015823A1, “Ambruticin VS compounds” (priority 2004, published 2007).
≈ marks a conversion by molar mass, not a printed value.

Experiments:
A. fumigatus ATCC 204305 = experiment: Broth microdilution antifungal susceptibility, NCCLS M38-A; type: cell-based, Aspergillus fumigatus; conditions: minimal concentration inhibiting >95% growth; average of at least two assays (except I-l and I-x)
[1] = system: Trichophyton interdigitale; experiment: Dermatophyte broth microdilution, NCCLS M38-A; type: cell-based
Microsporum canis = experiment: Dermatophyte broth microdilution, NCCLS M38-A; type: cell-based
Microsporum gypseum = experiment: Dermatophyte broth microdilution, NCCLS M38-A; type: cell-based
Trichophyton rubrum = experiment: Dermatophyte broth microdilution, NCCLS M38-A; type: cell-based
Cryptococcus neoformans = experiment: Broth microdilution antifungal susceptibility, NCCLS M38-A; conditions: 50% growth inhibition, range = minimum and maximum of multiple assays; for MIC C. neoformans 97-14: strain 97-14; for MIC C. neoformans 11239: strain 11239; for MIC C. neoformans 11240: strain 11240
S. apiospermum = experiment: as above; type: cell-based, Scedosporium apiospermum
Epidermophyton floccosum = experiment: Dermatophyte broth microdilution, NCCLS M38-A; type: cell-based
Fusarium solani = experiment: Broth microdilution antifungal susceptibility, NCCLS M38-A; type: cell-based; conditions: strain 96-1; 50% growth inhibition; range = minimum and maximum of multiple assays
A. flavus ATCC 204304 = experiment: as above; type: cell-based, Aspergillus flavus; conditions: minimal concentration inhibiting >95% growth; average of at least two assays (except I-l and I-x)
[2] = system: Trichophyton mentagrophytes; experiment: Dermatophyte broth microdilution, NCCLS M38-A; type: cell-based
Candida albicans = conditions: 50% growth inhibition, range = minimum and maximum of multiple assays; for MIC C. albicans 24433: strain 24433; for MIC C. albicans 90028: strain 90028
Blastomyces dermatitidis = experiment: Broth microdilution antifungal susceptibility, NCCLS M38-A; type: cell-based
Histoplasma capsulatum = type: cell-based

Compound: CC[C@H]1O[C@@H](/C(C)=C/[C@H](C)/C=C/[C@H]2[C@@H](C)[C@@H]2/C=C/[C@@H]2O[C@H](CC(N)=O)C[C@H](N(C)C)[C@H]2O)CC=C1C [I-hh, (5S,6R)-5-(dimethylamino)polyangiamide]
- MIC0 A. fumigatus ATCC 204305 (A. fumigatus ATCC 204305): 1 µg/mL
- MIC0 Ti [1]: 3.17 µg/mL
- MIC0 Mc (Microsporum canis): 0.7 µg/mL
- MIC0 Mg (Microsporum gypseum): 1.25 µg/mL
- MIC0 Tr (Trichophyton rubrum): 2.51 µg/mL
- MIC C. neoformans 97-14 (Cryptococcus neoformans): 1 µg/mL (≈ 2 µM)
- MIC C. neoformans 11239 (Cryptococcus neoformans): 1 µg/mL (≈ 2 µM)
- MIC C. neoformans 11240 (Cryptococcus neoformans): 1 µg/mL (≈ 2 µM)
- MIC S. apiospermum 94-54 (S. apiospermum): 32 µg/mL (≈ 63.9 µM)
- MIC S. apiospermum 98-38 (S. apiospermum): 32 µg/mL (≈ 63.9 µM)
- MIC S. apiospermum 98-89 (S. apiospermum): 1 to 2 µg/mL
- MIC0 Ef (Epidermophyton floccosum): 2.82 µg/mL
- MIC F. solani 96-1 (Fusarium solani): 16 µg/mL (≈ 32 µM)
- MIC0 A. flavus ATCC 204304 (A. flavus ATCC 204304): 2 µg/mL
- MIC0 Tm [2]: 2.82 µg/mL
- MIC C. albicans 24433 (Candida albicans): 32 µg/mL (≈ 63.9 µM)
- MIC C. albicans 90028 (Candida albicans): 32 µg/mL (≈ 63.9 µM)

Compound: CC[C@H]1O[C@@H](/C(C)=C/[C@H](C)/C=C/[C@H]2[C@@H](C)[C@@H]2/C=C/[C@@H]2O[C@H](CC(=O)O)C[C@H](N(C)CCO)[C@H]2O)CC=C1C [I-n, (5S,6R)-5-(N-(2-hydroxyethyl)-methylamino)-6-hydroxypolyangioic acid]
- MIC0 A. fumigatus ATCC 204305 (A. fumigatus ATCC 204305): 1.4 µg/mL
- MIC0 Ti [1]: 1.25 µg/mL
- MIC0 Mc (Microsporum canis): 2.82 µg/mL
- MIC0 Mg (Microsporum gypseum): 1.99 µg/mL
- MIC0 Tr (Trichophyton rubrum): 2.51 µg/mL
- MIC B. dermatitidis Gu (Blastomyces dermatitidis): 6.25 µg/mL (≈ 11.8 µM)
- MIC B. dermatitidis Kr (Blastomyces dermatitidis): >12.5 µg/mL
- MIC B. dermatitidis V (Blastomyces dermatitidis): >12.5 µg/mL
- MIC C. neoformans 97-14 (Cryptococcus neoformans): 0.25 µg/mL (≈ 0.47 µM)
- MIC C. neoformans 11239 (Cryptococcus neoformans): 0.125 to 0.25 µg/mL
- MIC C. neoformans 11240 (Cryptococcus neoformans): 0.125 to 0.25 µg/mL
- MIC S. apiospermum 94-54 (S. apiospermum): >16 µg/mL
- MIC S. apiospermum 98-38 (S. apiospermum): >16 µg/mL
- MIC S. apiospermum 98-89 (S. apiospermum): 0.125 to 0.25 µg/mL
- MIC0 Ef (Epidermophyton floccosum): 2 µg/mL
- MIC F. solani 96-1 (Fusarium solani): >16 µg/mL
- MIC0 A. flavus ATCC 204304 (A. flavus ATCC 204304): 2 µg/mL
- MIC0 Tm [2]: 8 µg/mL
- MIC H. capsulatum G217B (Histoplasma capsulatum): <0.19 µg/mL
- MIC H. capsulatum GS20 (Histoplasma capsulatum): <0.19 µg/mL
- MIC C. albicans 24433 (Candida albicans): >32 µg/mL
- MIC C. albicans 90028 (Candida albicans): >32 µg/mL

Compound: (5S,6R)-5-(N-(4-imidazolyl)methyl-methylamino)-6-hydroxypolyangioic acid [I-h]
- MIC0 A. fumigatus ATCC 204305 (A. fumigatus ATCC 204305): 2.1 µg/mL
- MIC C. neoformans 97-14 (Cryptococcus neoformans): 0.5 µg/mL
- MIC C. neoformans 11239 (Cryptococcus neoformans): 0.25 µg/mL
- MIC C. neoformans 11240 (Cryptococcus neoformans): 0.25 µg/mL
- MIC S. apiospermum 94-54 (S. apiospermum): >16 µg/mL
- MIC S. apiospermum 98-38 (S. apiospermum): >16 µg/mL
- MIC S. apiospermum 98-89 (S. apiospermum): 0.125 to 0.25 µg/mL
- MIC F. solani 96-1 (Fusarium solani): >16 µg/mL
- MIC0 A. flavus ATCC 204304 (A. flavus ATCC 204304): 1.0 µg/mL
- MIC C. albicans 24433 (Candida albicans): >32 µg/mL
- MIC C. albicans 90028 (Candida albicans): >32 µg/mL

Compound: CC[C@H]1O[C@@H](/C(C)=C/[C@H](C)/C=C/[C@H]2[C@@H](C)[C@@H]2/C=C/[C@@H]2O[C@H](CCO)C[C@H](N(C)C)[C@H]2O)CC=C1C [I-ff, (5S,6R)-5-(dimethylamino)polyangi-1,6-diol]
- MIC0 A. fumigatus ATCC 204305 (A. fumigatus ATCC 204305): 2.07 µg/mL
- MIC0 Blastomyces dermatitidis 04-2167 (Blastomyces dermatitidis): 0.06 µg/mL
- MIC0 Blastomyces dermatitidis 04-2508 (Blastomyces dermatitidis): 0.06 µg/mL
- MIC0 Blastomyces dermatitidis 04-2915 (Blastomyces dermatitidis): 0.06 µg/mL
- MIC0 Blastomyces dermatitidis 05-106 (Blastomyces dermatitidis): 0.06 µg/mL
- MIC0 Blastomyces dermatitidis 05-186 (Blastomyces dermatitidis): 0.06 µg/mL
- MIC0 Blastomyces dermatitidis 05-1391 (Blastomyces dermatitidis): 0.06 µg/mL
- MIC0 Blastomyces dermatitidis 05-1707 (Blastomyces dermatitidis): ≦0.015 μg/mL
- MIC0 Blastomyces dermatitidis 05-1820 (Blastomyces dermatitidis): 0.03 µg/mL
- MIC0 Blastomyces dermatitidis 05-1829 (Blastomyces dermatitidis): 0.06 µg/mL
- MIC0 Blastomyces dermatitidis 05-2020 (Blastomyces dermatitidis): 0.06 µg/mL
- MIC0 Blastomyces dermatitidis R-3529 (Blastomyces dermatitidis): 0.03 µg/mL
- MIC0 Blastomyces dermatitidis R-35629 (Blastomyces dermatitidis): 0.06 µg/mL
- MIC B. dermatitidis Gu (Blastomyces dermatitidis): >12.5 µg/mL
- MIC B. dermatitidis Kr (Blastomyces dermatitidis): >12.5 µg/mL
- MIC B. dermatitidis V (Blastomyces dermatitidis): >12.5 µg/mL
- MIC S. apiospermum 94-54 (S. apiospermum): 32 µg/mL (≈ 65.6 µM)
- MIC S. apiospermum 98-38 (S. apiospermum): 16 µg/mL (≈ 32.8 µM)
- MIC S. apiospermum 98-89 (S. apiospermum): 0.5 µg/mL (≈ 1.03 µM)
- MIC F. solani 96-1 (Fusarium solani): 8 to 16 µg/mL
- MIC0 A. flavus ATCC 204304 (A. flavus ATCC 204304): 1.76 µg/mL
- MIC H. capsulatum G217B (Histoplasma capsulatum): <0.19 µg/mL
- MIC H. capsulatum GS20 (Histoplasma capsulatum): <0.19 µg/mL
- MIC C. albicans 24433 (Candida albicans): 32 µg/mL (≈ 65.6 µM)
- MIC C. albicans 90028 (Candida albicans): 32 µg/mL (≈ 65.6 µM)

Compound: CC[C@H]1O[C@@H](/C(C)=C/[C@H](C)/C=C/[C@H]2[C@@H](C)[C@@H]2/C=C/[C@@H]2O[C@H](CC(=O)O)C[C@H](N(CC)CC)[C@H]2O)CC=C1C [I-z, (5S,6R)-5-(diethylamino)-6-hydroxypolyangioic acid]
- MIC0 A. fumigatus ATCC 204305 (A. fumigatus ATCC 204305): 2.1 µg/mL
- MIC0 Ti [1]: 0.79 µg/mL
- MIC0 Mc (Microsporum canis): 2 µg/mL
- MIC0 Mg (Microsporum gypseum): 1.58 µg/mL
- MIC0 Tr (Trichophyton rubrum): 1.25 µg/mL
- MIC B. dermatitidis Gu (Blastomyces dermatitidis): >12.5 µg/mL
- MIC B. dermatitidis Kr (Blastomyces dermatitidis): >12.5 µg/mL
- MIC B. dermatitidis V (Blastomyces dermatitidis): >12.5 µg/mL
- MIC C. neoformans 97-14 (Cryptococcus neoformans): 0.5 to 1 µg/mL
- MIC C. neoformans 11239 (Cryptococcus neoformans): 0.25 to 0.5 µg/mL
- MIC C. neoformans 11240 (Cryptococcus neoformans): 0.5 µg/mL (≈ 0.944 µM)
- MIC S. apiospermum 94-54 (S. apiospermum): >16 µg/mL
- MIC S. apiospermum 98-38 (S. apiospermum): >16 µg/mL
- MIC S. apiospermum 98-89 (S. apiospermum): 0.25 to 0.5 µg/mL
- MIC0 Ef (Epidermophyton floccosum): 4 µg/mL
- MIC F. solani 96-1 (Fusarium solani): >16 µg/mL
- MIC0 A. flavus ATCC 204304 (A. flavus ATCC 204304): 2.2 µg/mL
- MIC0 Tm [2]: 4 µg/mL
- MIC H. capsulatum G217B (Histoplasma capsulatum): <0.19 µg/mL
- MIC H. capsulatum GS20 (Histoplasma capsulatum): <0.19 µg/mL
- MIC C. albicans 24433 (Candida albicans): >32 µg/mL
- MIC C. albicans 90028 (Candida albicans): >32 µg/mL

Compound: CC[C@H]1O[C@@H](/C(C)=C/[C@H](C)/C=C/[C@H]2[C@@H](C)[C@@H]2/C=C/[C@@H]2O[C@H](CC(=O)O)C[C@H](N(C)Cc3cccnc3)[C@H]2O)CC=C1C [I-w, (5S,6R)-5-(N-(3-pyridyl)methyl-methylamino)-6-hydroxypolyangioic acid]
- MIC0 A. fumigatus ATCC 204305 (A. fumigatus ATCC 204305): 4.25 µg/mL
- MIC C. neoformans 97-14 (Cryptococcus neoformans): 1 µg/mL (≈ 1.73 µM)
- MIC C. neoformans 11239 (Cryptococcus neoformans): 0.5 µg/mL (≈ 0.864 µM)
- MIC C. neoformans 11240 (Cryptococcus neoformans): 0.5 to 1 µg/mL
- MIC S. apiospermum 94-54 (S. apiospermum): >16 µg/mL
- MIC S. apiospermum 98-38 (S. apiospermum): >16 µg/mL
- MIC S. apiospermum 98-89 (S. apiospermum): 2 µg/mL (≈ 3.46 µM)
- MIC F. solani 96-1 (Fusarium solani): >16 µg/mL
- MIC0 A. flavus ATCC 204304 (A. flavus ATCC 204304): 4 µg/mL
- MIC C. albicans 24433 (Candida albicans): >32 µg/mL
- MIC C. albicans 90028 (Candida albicans): >32 µg/mL
